Broadly, the melting point is the temperature, or range, at which the solid turns liquid.

The source of these data is publication PMC8457735, “Synthesis, Kinetics, Binding Conformations and Structure-activity Relationship of Potent Tyrosinase Inhibitors: Aralkylated 2-aminothiazole-ethyltriazole Hybrids” (Iranian Journal of Pharmaceutical Research : IJPR, 2021).

Molecules are shown by their SMILES. Entries after “also recorded” stand apart in the source; their conditions may differ.

The nature of data set [1]: Free radical scavenging assay (DPPH). To be noted: compound concentration 100 µg/mL. On the procedure: Radical scavenging activity was determined by modifying the already reported method by 2, 2-diphenyl-1 picrylhydrazyl (DPPH) assay ([55]). The assay solution consisted of 100 µL of DPPH (150 µM), 20 µL of increasing concentration of test compounds, and the volume was adjusted to 200 µL in each well with CH3OH. After that, the assay reaction was then incubated for 30 minutes at room temperature. Ascorbic acid (Vitamin C) was used as a reference inhibitor. The assay measurements were carried out using a microplate reader (OPTI Max, Tunable) at 517 nm. The reaction rates were compared, and the percent inhibition caused by tested inhibitors was calculated. All experiments were repeated thrice.
Background: Loss of DPPH colour is used to gauge radical scavenging.

A further data set deals with mushroom tyrosinase (Agaricus bisporus, UniProt C7FF04). Briefly: Kinetic analysis of tyrosinase inhibition (Lineweaver-Burk and secondary plots). The data set is classed as biochemical. On the procedure:
A series of experiments were performed to determine the inhibition kinetics of 7g, following the already reported methods ([54]). The concentrations for 7g were 0.00, 0.0018, 0.0036 and 0.0072 µM. Substrate L-DOPA concentrations were between 0.0625 to 2 mM in all kinetic studies. Pre-incubation and measurement time was the same as discussed in the mushroom tyrosinase inhibition assay protocol. Maximal initial velocity was determined from the initial linear portion of absorbance up to five minutes after the addition of enzyme at the 30s interval. The inhibition type of the enzyme was assayed by Lineweaver-Burk plots of the inverse of velocities (1/V) versus the inverse of substrate concentration 1/[L-DOPA] mM^-1.

Chain of mushroom tyrosinase (C7FF04 1-392): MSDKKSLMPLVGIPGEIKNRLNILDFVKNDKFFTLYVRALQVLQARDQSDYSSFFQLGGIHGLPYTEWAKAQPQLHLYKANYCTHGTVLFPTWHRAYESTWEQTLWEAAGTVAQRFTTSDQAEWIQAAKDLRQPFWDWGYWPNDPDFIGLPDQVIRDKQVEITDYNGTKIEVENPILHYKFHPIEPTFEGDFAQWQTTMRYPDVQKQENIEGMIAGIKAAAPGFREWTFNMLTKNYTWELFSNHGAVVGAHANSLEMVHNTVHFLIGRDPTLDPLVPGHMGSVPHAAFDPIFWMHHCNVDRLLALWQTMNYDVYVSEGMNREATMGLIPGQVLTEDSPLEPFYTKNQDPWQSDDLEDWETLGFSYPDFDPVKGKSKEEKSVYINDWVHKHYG

In the case of `CCn1c(Cc2csc(N)n2)nnc1SCc1ccc(Cl)c(Cl)c1` [Compound 7h, 4-({5-[(3,4-Dichlorobenzyl)sulfanyl]-4-ethyl-4H-1,2,4-triazol-3-yl}methyl)-1,3-thiazol-2-amine], in data set [1], the radical scavenging activity is 21%.

`CCn1c(Cc2csc(N)n2)nnc1SCc1ccc(Br)cc1` [Compound 7k, -({5-[(4-Bromobenzyl)sulfanyl]-4-ethyl-4H-1,2,4-triazol-3-yl}methyl)-1,3-thiazol-2-amine] registered a melting point of 150 to 151 °C.

Take `CCn1c(Cc2csc(N)n2)nnc1SCc1ccccc1Br` [Compound 7i, 4-({5-[(2-Bromobenzyl)sulfanyl]-4-ethyl-4H-1,2,4-triazol-3-yl}methyl)-1,3-thiazol-2-amine]: the melting point fell in the range of 108 to 109 °C.

The molecule `CCn1c(Cc2csc(N)n2)nnc1SCc1ccc(Cl)cc1Cl` [Compound 7g, 4-({5-[(2,4-Dichlorobenzyl)sulfanyl]-4-ethyl-4H-1,2,4-triazol-3-yl}methyl)-1,3-thiazol-2-amine] displayed a radical scavenging activity in data set [1] of 24%. The Vmax on mushroom tyrosinase (L-DOPA activity in presence of 0.0018 µM 7g) is reported as 6.676 × 10^-5 ΔA/s; at mushroom tyrosinase (L-DOPA activity in presence of 0.0036 µM 7g), 4.712 × 10^-5 ΔA/s; at mushroom tyrosinase (L-DOPA activity in presence of 0.0072 µM 7g), 4.223 × 10^-5 ΔA/s. Besides, at mushroom tyrosinase (Lineweaver-Burk plots, substrate L-DOPA 0.0625-2 mM), the “Inhibition Type” value is “non-competitively; also recorded: Non-Competitive”.
